“Also recorded” adds a separate entry of the source.
System: Ba
Test: Phase 2a study: urinary Ba (MicroVue Ba Enzyme Immunoassay)
Format: in vivo, human
Conditions: for Urine Ba / Ba/ALB / Ba/Cr: 200 mg TID; for Ba/ALB GEOMEAN / Ba/ALB MEAN / Ba/Cr GEOMEAN / Ba/Cr MEAN / Urine Ba MEAN / Urine Ba GEOMEAN: patients A-F

Which results are given for CC(=O)c1nn(CC(=O)N2C[C@H](F)C[C@H]2C(=O)Nc2cccc(Br)n2)c2ccc(-c3cnc(C)nc3)cc12 [Compound 1, (2S,4R)-1-(2-(3-acetyl-5-(2-methylpyrimidin-5-yl)-1H-indazol-1-yl)acetyl)-N-(6-bromopyridin-2-yl)-4-fluoropyrrolidine-2-carboxamide]?
Urine Ba (Patient D, Day 21 Taper): 18.6 ng/mL; Ba/ALB (Patient D, Follow-Up Day 24): 14.9 ng/mg; Ba/Cr (Patient D, Follow-Up Day 24): 4.2 µg/mmol; Urine Ba (Patient D, Follow-Up Day 24): 28.7 ng/mL; Ba/ALB (Patient D, Follow-Up Day 28): 10.8 ng/mg; Ba/Cr (Patient D, Follow-Up Day 28): 6.2 µg/mmol; Urine Ba (Patient D, Follow-Up Day 28): 30.0 ng/mL; Ba/ALB (Patient D, Follow-Up Day 49): 3.8 ng/mg; Ba/Cr (Patient D, Follow-Up Day 49): 2.4 µg/mmol; Urine Ba (Patient D, Follow-Up Day 49): 9.4 ng/mL; Ba/ALB (Patient D, Screen): 19.2 ng/mg; Ba/Cr (Patient D, Screen): 11.1 µg/mmol; Urine Ba (Patient D, Screen): 84.4 ng/mL; Ba/ALB (Patient E, Day 1/0 Hour): 33.5 ng/mg; Ba/Cr (Patient E, Day 1/0 Hour): 14.2 µg/mmol; Urine Ba (Patient E, Day 1/0 Hour): 252 ng/mL; Ba/ALB (Patient E, Day 4): 14.7 ng/mg; Ba/Cr (Patient E, Day 4): 6.2 µg/mmol; Urine Ba (Patient E, Day 4): 129 ng/mL; Ba/ALB (Patient E, Day 7/0 Hour): 17.3 ng/mg; Ba/Cr (Patient E, Day 7/0 Hour): 9.2 µg/mmol; Urine Ba (Patient E, Day 7/0 Hour): 142 ng/mL; Ba/ALB (Patient E, Day 10): 12.8 ng/mg; Ba/Cr (Patient E, Day 10): 8.0 µg/mmol; Urine Ba (Patient E, Day 10): 106 ng/mL; Ba/ALB (Patient E, Day 14): 6.9 ng/mg; Ba/Cr (Patient E, Day 14): 1.8 µg/mmol; Urine Ba (Patient E, Day 14): 41 ng/mL; Ba/ALB (Patient E, Day 15 Taper): 3.6 ng/mg; Ba/Cr (Patient E, Day 15 Taper): 1.2 µg/mmol; Urine Ba (Patient E, Day 15 Taper): 11 ng/mL; Ba/ALB (Patient E, Day 16 Taper): 7.2 ng/mg; Ba/Cr (Patient E, Day 16 Taper): 2.0 µg/mmol; Urine Ba (Patient E, Day 16 Taper): 20 ng/mL; Ba/ALB (Patient E, Day 17 Taper): 12.7 ng/mg; Ba/Cr (Patient E, Day 17 Taper): 6.0 µg/mmol; Urine Ba (Patient E, Day 17 Taper): 47 ng/mL; Ba/ALB (Patient E, Day 21 Taper): 21.6 ng/mg; Ba/Cr (Patient E, Day 21 Taper): 5.5 µg/mmol; Urine Ba (Patient E, Day 21 Taper): 42 ng/mL; Ba/ALB (Patient E, Follow-Up Day 24): 41.2 ng/mg; Ba/Cr (Patient E, Follow-Up Day 24): 12.5 µg/mmol; Urine Ba (Patient E, Follow-Up Day 24): 156 ng/mL; Ba/ALB (Patient E, Follow-Up Day 28): 46.1 ng/mg; Ba/Cr (Patient E, Follow-Up Day 28): 14.1 µg/mmol; Urine Ba (Patient E, Follow-Up Day 28): 234 ng/mL; Ba/ALB (Patient E, Follow-Up Day 49): 40.0 ng/mg; Ba/Cr (Patient E, Follow-Up Day 49): 13.1 µg/mmol; Urine Ba (Patient E, Follow-Up Day 49): 207 ng/mL; Ba/ALB (Patient F, Day 1/0 Hour): 25.9 ng/mg; Ba/Cr (Patient F, Day 1/0 Hour): 7.6 µg/mmol; Urine Ba (Patient F, Day 1/0 Hour): 74.9 ng/mL; Ba/ALB (Patient F, Day 4): 7.6 ng/mg; Ba/Cr (Patient F, Day 4): 1.2 µg/mmol; Urine Ba (Patient F, Day 4): 5.7 ng/mL; Ba/ALB (Patient F, Day 7/0 Hour): 5.7 ng/mg; Ba/Cr (Patient F, Day 7/0 Hour): 0.5 µg/mmol; Urine Ba (Patient F, Day 7/0 Hour): 2.1 ng/mL; Urine Ba (Patient F, Day 10): 2.1 ng/mL; Ba/ALB (Patient F, Day 14): 5.8 ng/mg; Ba/Cr (Patient F, Day 14): 1.1 µg/mmol; Urine Ba (Patient F, Day 14): 9.8 ng/mL; Ba/ALB (Patient F, Day 15 Taper): 0.6 ng/mg; Ba/Cr (Patient F, Day 15 Taper): 0.5 µg/mmol; Urine Ba (Patient F, Day 15 Taper): 2.8 ng/mL; Ba/ALB (Patient F, Day 16 Taper): 2.6 ng/mg; Ba/Cr (Patient F, Day 16 Taper): 0.6 µg/mmol; Urine Ba (Patient F, Day 16 Taper): 2.2 ng/mL; Ba/ALB (Patient F, Day 17 Taper): 1.6 ng/mg; Ba/Cr (Patient F, Day 17 Taper): 0.7 µg/mmol; Urine Ba (Patient F, Day 17 Taper): 6.9 ng/mL; Ba/ALB (Patient F, Day 21 Taper): 1.5 ng/mg; Ba/Cr (Patient F, Day 21 Taper): 0.5 µg/mmol; Urine Ba (Patient F, Day 21 Taper): 6.6 ng/mL; Ba/ALB (Patient F, Follow-Up Day 24): 1.5 ng/mg; Ba/Cr (Patient F, Follow-Up Day 24): 0.4 µg/mmol; Urine Ba (Patient F, Follow-Up Day 24): 2.2 ng/mL; Ba/ALB (Patient F, Follow-Up Day 28): 2.5 ng/mg; Ba/Cr (Patient F, Follow-Up Day 28): 0.6 µg/mmol; Urine Ba (Patient F, Follow-Up Day 28): 2.8 ng/mL; Ba/Cr (Patient F, Follow-Up Day 49): 8.2 µg/mmol; Urine Ba (Patient F, Follow-Up Day 49): 44.4 ng/mL; Ba/ALB GEOMEAN (Day 1/0 Hour): 22.6 ng/mg; Ba/ALB MEAN (Day 1/0 Hour): 53.4 ng/mg; Ba/Cr GEOMEAN (Day 1/0 Hour): 5.7 µg/mmol; Ba/Cr MEAN (Day 1/0 Hour): 26.7 µg/mmol; Urine Ba MEAN (Day 1/0 Hour): 197 ng/mL; Ba/ALB GEOMEAN (Day 4): 7.8 ng/mg; Ba/ALB MEAN (Day 4): 13.8 ng/mg; Ba/Cr GEOMEAN (Day 4): 1.4 µg/mmol; Ba/Cr MEAN (Day 4): 3.8 µg/mmol; Urine Ba GEOMEAN (Day 4): 9.1 ng/mL; Urine Ba MEAN (Day 4): 52 ng/mL; Ba/ALB GEOMEAN (Day 7/0 Hour): 8.9 ng/mg; Ba/ALB MEAN (Day 7/0 Hour): 13.4 ng/mg; Ba/Cr GEOMEAN (Day 7/0 Hour): 1.5 µg/mmol; Ba/Cr MEAN (Day 7/0 Hour): 4.0 µg/mmol; Urine Ba GEOMEAN (Day 7/0 Hour): 7.9 ng/mL; Urine Ba MEAN (Day 7/0 Hour): 51 ng/mL; Urine Ba GEOMEAN (Day 10): 5.0 ng/mL; Urine Ba MEAN (Day 10): 28 ng/mL; Ba/ALB GEOMEAN (Day 15 Taper): 4.9 ng/mg; Ba/ALB MEAN (Day 15 Taper): 13.4 ng/mg; Ba/Cr GEOMEAN (Day 15 Taper): 1.2 µg/mmol; Ba/Cr MEAN (Day 15 Taper): 4.1 µg/mmol; Urine Ba GEOMEAN (Day 15 Taper): 6.8 ng/mL; Urine Ba MEAN (Day 15 Taper): 41 ng/mL; Ba/ALB GEOMEAN (Day 17 Taper): 6.9 ng/mg; Ba/ALB MEAN (Day 17 Taper): 15.4 ng/mg; Ba/Cr GEOMEAN (Day 17 Taper): 1.6 µg/mmol; Ba/Cr MEAN (Day 17 Taper): 4.2 µg/mmol; Urine Ba GEOMEAN (Day 17 Taper): 9.5 ng/mL; Urine Ba MEAN (Day 17 Taper): 41 ng/mL; Ba/ALB MEAN (Day 21 Taper): 24.5 ng/mg; Ba/Cr GEOMEAN (Day 21 Taper): 2.6 µg/mmol; Ba/Cr MEAN (Day 21 Taper): 6.0 µg/mmol; Urine Ba GEOMEAN (Day 21 Taper): 17.2 ng/mL; Urine Ba MEAN (Day 21 Taper): 46 ng/mL; Ba/ALB MEAN (Follow-Up Day 24): 38.5 ng/mg; Ba/Cr GEOMEAN (Follow-Up Day 24): 3.0 µg/mmol; Ba/Cr MEAN (Follow-Up Day 24): 11.6 µg/mmol; Urine Ba GEOMEAN (Follow-Up Day 24): 18.4 ng/mL; Urine Ba MEAN (Follow-Up Day 24): 92 ng/mL; Ba/ALB GEOMEAN (Follow-Up Day 28): 17.4 ng/mg; Ba/ALB MEAN (Follow-Up Day 28): 34.3 ng/mg; Ba/Cr GEOMEAN (Follow-Up Day 28): 3.8 µg/mmol; Ba/Cr MEAN (Follow-Up Day 28): 9.3 µg/mmol; Urine Ba GEOMEAN (Follow-Up Day 28): 24.5 ng/mL; Urine Ba MEAN (Follow-Up Day 28): 90 ng/mL; Ba/ALB GEOMEAN (Follow-Up Day 49): 20.7 ng/mg; Ba/ALB MEAN (Follow-Up Day 49): 143.0 ng/mg; Ba/Cr GEOMEAN (Follow-Up Day 49): 3.9 µg/mmol; Ba/Cr MEAN (Follow-Up Day 49): 22.6 µg/mmol; Urine Ba GEOMEAN (Follow-Up Day 49): 27.2 ng/mL; Urine Ba MEAN (Follow-Up Day 49): 334 ng/mL; Urinary Ba levels (two-week treatment): reduced significantly; also recorded: reduced in all patients; Urinary Ba levels normalized to urinary creatinine or albumin (two-week treatment): reduced significantly

— patent US20210215714A1, “COMPLEMENT ALTERNATIVE PATHWAY-ASSOCIATED NEPHROPATHY BIOMARKERS” (Achillion Pharmaceuticals, Inc., priority 2018, published 2021)
